# Measured values published in paper PMC11288027, “Exploring novel microbial metabolites and drugs for inhibiting Clostridioides difficile” (mSphere, 2024).
# Values joined by “and” are separate entries in the source; they are usually repeats but may differ in a detail not shown here. Identical values can stand only once. Counter-ions that a name gives are not always drawn. Like-named read-outs stand apart in the source and are kept apart here.
# Columns and labels:
# Bif. angulatum = experiment: MIC against human gut microbiota; type: cell-based, Bifidobacterium angulatum; settings: Bifidobacterium angulatum, read-out: minimum inhibitory concentration (MIC)
# [1] = test system: C. difficile clinical isolates; experiment: MIC against a panel of 20 C. difficile clinical isolates (broth microdilution); type: cell-based, Clostridioides difficile; settings: Clostridioides difficile
# [2] = test system: C. difficile ATCC BAA-1870; experiment: Time-kill assay at 5 × MIC; settings: C. difficile ATCC BAA-1870, ~10^6 CFU/mL, up to 24 h
# [3] = test system: C. difficile ATCC BAA-1870; experiment: MIC of active hits by broth microdilution; settings: C. difficile ATCC BAA-1870, 48 h anaerobic; for MIC: Clostridioides difficile, ATCCBAA1870, 48 h
# B. dorei = experiment: MIC against human gut microbiota; type: cell-based, Bacteroides dorei; settings: Phocaeicola dorei, read-out: minimum inhibitory concentration (MIC)
# Acinetobacter baumannii = test system: Acinetobacter baumannii; parameters: method as in PMID 26414088; settings: cited from earlier work
# mice = settings: administered orally; cited from earlier work
# Bif. breve = experiment: MIC against human gut microbiota; type: cell-based, Bifidobacterium breve; settings: Bifidobacterium breve
# E. fecalis = experiment: MIC against human gut microbiota; type: cell-based, Enterococcus faecalis; settings: Enterococcus faecalis, read-out: minimum inhibitory concentration (MIC)
# S. aureus = test system: S. aureus; parameters: method as in PMID 26414088; settings: cited from earlier work
# L. casei = experiment: MIC against human gut microbiota; type: cell-based; settings: Lacticaseibacillus casei
# L. rhamanosus = experiment: MIC against human gut microbiota; type: cell-based, Lactobacillus rhamnoosus; settings: Lactobacillus
# E. faecium = experiment: MIC against human gut microbiota; type: cell-based, Enterococcus faecium; settings: Enterococcus faecium, read-out: minimum inhibitory concentration (MIC)
# [4] = test system: Staphylococcus epidermidis; parameters: method as in PMID 26414088; settings: cited from earlier work
# B. fragilis = experiment: MIC against human gut microbiota; type: cell-based, Bacteroides fragilis; settings: for MIC: Bacteroides fragilis, read-out: minimum inhibitory concentration (MIC)
# Bif. longum = experiment: MIC against human gut microbiota; type: cell-based, Bifidobacterium longum; settings: Bifidobacterium longum
# L. brevis = experiment: MIC against human gut microbiota; type: cell-based, Lactobacillus brevis; settings: Levilactobacillus brevis
# Bif. adolescentis = experiment: MIC against human gut microbiota; type: cell-based, Bifidobacterium adolescentis; settings: Bifidobacterium adolescentis, read-out: minimum inhibitory concentration (MIC)
# [5] = Cytotoxicity assessment against Vero cells (MTS); settings: monkey, Vero cells (monkey kidney epithelial cells)
# [6] = test system: monkey kidney epithelial (Vero) cells; experiment: Cytotoxicity assessment against Vero cells (MTS); settings: Vero IC50 relative to MIC90 of C. difficile panel
# [7] = test system: embryo development in mice; parameters: method as in PMID 19079959; settings: cited from earlier work
# [8] = Bif. angulatum HM- 1189, BHIS broth, anaerobic
# [9] = 48 h, concentration that inhibited 50% of the 20 C. difficile clinical isolates, read-out: MIC50
# [10] = ATCC630, C. difficile ATCC 630, read-out: minimum inhibitory concentration (MIC)
# [11] = ATCC43255, C. difficile ATCC 43255, read-out: minimum inhibitory concentration (MIC)
# [12] = ATCCBAA1870, C. difficile ATCC BAA-1870 (Ribotype-027), purchased compounds, panel test, read-out: minimum inhibitory concentration (MIC)
# [13] = C. difficile CD-1 (Ribotype-027), read-out: minimum inhibitory concentration (MIC)
# [14] = C. difficile CD-6 (Ribotype-027), read-out: minimum inhibitory concentration (MIC)
# [15] = C. difficile CD-10(Ribotype-027), read-out: minimum inhibitory concentration (MIC)
# [16] = C. difficile CD-12, read-out: minimum inhibitory concentration (MIC)
# [17] = C. difficile CD-13, read-out: minimum inhibitory concentration (MIC)
# [18] = C. difficile CD-15, read-out: minimum inhibitory concentration (MIC)
# [19] = C. difficile CD-22, read-out: minimum inhibitory concentration (MIC)
# [20] = C. difficile CD-23, read-out: minimum inhibitory concentration (MIC)
# [21] = C. difficile CD-24, read-out: minimum inhibitory concentration (MIC)
# [22] = C. difficile CD-26 (Ribotype-027), read-out: minimum inhibitory concentration (MIC)
# [23] = C. difficile CD-28, read-out: minimum inhibitory concentration (MIC)
# [24] = C. difficile CD-29 (Ribotype-027), read-out: minimum inhibitory concentration (MIC)
# [25] = C. difficile CD-30, read-out: minimum inhibitory concentration (MIC)
# [26] = C. difficile NR-49302, read-out: minimum inhibitory concentration (MIC)
# [27] = C. difficile NR-49304, read-out: minimum inhibitory concentration (MIC)
# [28] = C. difficile NR-49308, read-out: minimum inhibitory concentration (MIC)
# [29] = C. difficile NR-49319, read-out: minimum inhibitory concentration (MIC)
# [30] = concentration that inhibited 50% of the 20 C. difficile clinical isolates, read-out: MIC50
# [31] = concentration that inhibited 90% of the 20 C. difficile clinical isolates, read-out: MIC90
# [32] = B. dorei HM- 719, BHIS broth, anaerobic
# [33] = ATCC15700, Bif. breve ATCC 15700, BHIS broth, anaerobic, read-out: minimum inhibitory concentration (MIC)
# [34] = E. fecalis HM-970, TSB, aerobic
# [35] = ATCC334, L. casei ATCC 334, MRS broth, 5% CO2, read-out: minimum inhibitory concentration (MIC)
# [36] = ATCC53103, L. rhamanosus ATCC-53103, MRS broth, 5% CO2, read-out: minimum inhibitory concentration (MIC)
# [37] = E. faecium HM-202, TSB, aerobic
# [38] = B. fragilis HM- 709, BHIS broth, anaerobic
# [39] = B. fragilis HM- 718, BHIS broth, anaerobic
# [40] = Bif. longum HM- 845, BHIS broth, anaerobic, read-out: minimum inhibitory concentration (MIC)
# [41] = Bif. longum HM- 846, BHIS broth, anaerobic, read-out: minimum inhibitory concentration (MIC)
# [42] = Bif. longum HM- 847, BHIS broth, anaerobic, read-out: minimum inhibitory concentration (MIC)
# [43] = Bif. longum HM- 848, BHIS broth, anaerobic, read-out: minimum inhibitory concentration (MIC)
# [44] = ATCC14864, L. brevis ATCC-14864, MRS broth, 5% CO2, read-out: minimum inhibitory concentration (MIC)
# [45] = Bif. adolescentis HM- 633, BHIS broth, anaerobic
smiles,measurement,setting,value
Oc1c(Br)cc(Br)c2cccnc12 [Broxyquinoline],MIC,Bif. angulatum; [8],8 µg/mL
same,MIC50,[1]; [9],0.125 µg/mL
same,MIC,[1]; [10],1 µg/mL
same,MIC,[1]; [11],0.25 µg/mL
same,MIC,[1]; [12],0.125 µg/mL
same,MIC,[1]; [13],0.25 µg/mL
same,MIC,[1]; [14],0.25 µg/mL
same,MIC,[1]; [15],0.125 µg/mL
same,MIC,[1]; [16],0.125 µg/mL
same,MIC,[1]; [17],0.03 µg/mL
same,MIC,[1]; [18],0.25 µg/mL
same,MIC,[1]; [19],0.125 µg/mL
same,MIC,[1]; [20],0.125 µg/mL
same,MIC,[1]; [21],0.015 µg/mL
same,MIC,[1]; [22],0.125 µg/mL
same,MIC,[1]; [23],0.06 µg/mL
same,MIC,[1]; [24],0.06 µg/mL
same,MIC,[1]; [25],0.25 µg/mL
same,MIC,[1]; [26],0.06 µg/mL
same,MIC,[1]; [27],0.03 µg/mL
same,MIC,[1]; [28],0.06 µg/mL
same,MIC,[1]; [29],0.25 µg/mL
same,MIC50,[1]; [30],0.125 µg/mL
same,MIC90,[1]; [31],0.25 µg/mL
same,time to eliminate / clear C. difficile,[2],6 h
same,MIC (μM),[3],4 µM
same,MIC,[3],1.21 µg/mL
same,MIC,B. dorei; [32],8 µg/mL
same,MIC,Acinetobacter baumannii,12.5 µM and 4 µg/mL
same,LD50,mice,7400 mg/kg
same,MIC,Bif. breve; [33],> 256 µg/mL
same,MIC,E. fecalis; [34],16 µg/mL
same,MIC,S. aureus,4 µg/mL
same,MIC,L. casei; [35],32 µg/mL
same,MIC,L. rhamanosus; [36],> 256 µg/mL
same,MIC,E. faecium; [37],32 µg/mL
same,MIC,[4],12.5 µM and 4 µg/mL
same,MIC,B. fragilis; [38],8 µg/mL
same,MIC,B. fragilis; [39],16 µg/mL
same,MIC,Bif. longum; [40],> 256 µg/mL
same,MIC,Bif. longum; [41],128 µg/mL
same,MIC,Bif. longum; [42],32 µg/mL
same,MIC,Bif. longum; [43],64 µg/mL
same,MIC,L. brevis; [44],64 µg/mL
same,MIC,Bif. adolescentis; [45],64 µg/mL
COC(=O)N/N=C/c1c[n+]([O-])c2ccccc2[n+]1[O-] [Carbadox],MIC,Bif. angulatum; [8],4 µg/mL
same,IC50 at 24 h,[5],> 128 µg/mL
same,safety index: Vero IC50 as times the MIC90 against strains of C. difficile,[6],> 64 times
same,MIC50,[1]; [9],1 µg/mL
same,MIC,[1]; [10],1 µg/mL
same,MIC,[1]; [11],1 µg/mL
same,MIC,[1]; [12],2 µg/mL
same,MIC,[1]; [13],2 µg/mL
same,MIC,[1]; [14],0.5 µg/mL
same,MIC,[1]; [15],2 µg/mL
same,MIC,[1]; [16],2 µg/mL
same,MIC,[1]; [17],1 µg/mL
same,MIC,[1]; [18],1 µg/mL
same,MIC,[1]; [19],2 µg/mL
same,MIC,[1]; [20],2 µg/mL
same,MIC,[1]; [21],1 µg/mL
same,MIC,[1]; [22],2 µg/mL
same,MIC,[1]; [23],2 µg/mL
same,MIC,[1]; [24],0.5 µg/mL
same,MIC,[1]; [25],2 µg/mL
same,MIC,[1]; [26],2 µg/mL
same,MIC,[1]; [27],1 µg/mL
same,MIC,[1]; [28],1 µg/mL
same,MIC,[1]; [29],0.5 µg/mL
same,MIC50,[1]; [30],1 µg/mL
same,MIC90,[1]; [31],2 µg/mL
same,MIC (μM),[3],4 µM
same,MIC,[3],1.05 µg/mL
same,MIC,B. dorei; [32],2 µg/mL
same,MIC,Bif. breve; [33],16 µg/mL
same,MIC,E. fecalis; [34],128 µg/mL
same,MIC,L. casei; [35],128 µg/mL
same,MIC,L. rhamanosus; [36],> 256 µg/mL
same,MIC,E. faecium; [37],128 µg/mL
same,MIC,B. fragilis; [38],2 µg/mL
same,MIC,B. fragilis; [39],2 µg/mL
same,MIC,Bif. longum; [40],4 µg/mL
same,MIC,Bif. longum; [41],8 µg/mL
same,MIC,Bif. longum; [42],16 µg/mL
same,MIC,Bif. longum; [43],4 µg/mL
same,MIC,L. brevis; [44],32 µg/mL
same,MIC,Bif. adolescentis; [45],4 µg/mL
C[C@H](CCC(=O)O)C[C@H](C)C[C@H](C)C(=O)/C=C(\O)[C@H](C)C[C@H](C)C/C=C/[C@@H](C)[C@@H](O)[C@@H](C)[C@@H](O)C[C@@H]1CC[C@@](C)([C@H]2CC[C@@](C)([C@@H](C)O)O2)O1 [Ionomycin (calcium salt)],MIC,Bif. angulatum,64 µg/mL
same,MIC50,[1],1 µg/mL
same,MIC90,[1],2 µg/mL
same,MIC50,[1]; 48 h,1 µg/mL
same,MIC,"[1]; ATCC630, read-out: minimum inhibitory concentration (MIC)",0.5 µg/mL
same,MIC,"[1]; ATCC43255, read-out: minimum inhibitory concentration (MIC)",1 µg/mL
same,MIC,"[1]; ATCCBAA1870, read-out: minimum inhibitory concentration (MIC)",1 µg/mL
same,time to bactericidal effect,[2],8 h
same,time to eliminate / clear C. difficile,[2],12 h
same,MIC (μM),[3],4 µM
same,MIC,[3],2.99 µg/mL
same,MIC,B. dorei,> 256 µg/mL
same,toxicity on embryo development,[7],no toxicity
same,MIC,"Bif. breve; ATCC15700, read-out: minimum inhibitory concentration (MIC)",> 256 µg/mL
same,MIC,E. fecalis,16 µg/mL
same,MIC,"L. casei; ATCC334, read-out: minimum inhibitory concentration (MIC)",32 µg/mL
same,MIC,"L. rhamanosus; ATCC53103, read-out: minimum inhibitory concentration (MIC)",> 256 µg/mL
same,MIC,E. faecium,32 µg/mL
same,minimum inhibitory concentration (MIC),B. fragilis; [39],>256 µg/mL
same,MIC,B. fragilis,> 256 µg/mL
same,MIC,"Bif. longum; read-out: minimum inhibitory concentration (MIC), Bif. longum HM- 845, BHIS broth, anaerobic",> 256 µg/mL
same,MIC,"Bif. longum; read-out: minimum inhibitory concentration (MIC), Bif. longum HM- 846, BHIS broth, anaerobic",64 µg/mL
same,MIC,"Bif. longum; read-out: minimum inhibitory concentration (MIC), Bif. longum HM- 847, BHIS broth, anaerobic",128 µg/mL
same,MIC,"Bif. longum; read-out: minimum inhibitory concentration (MIC), Bif. longum HM- 848, BHIS broth, anaerobic",256 µg/mL
same,MIC,"L. brevis; ATCC14864, read-out: minimum inhibitory concentration (MIC)",≥ 256 µg/mL
same,MIC,Bif. adolescentis,16 µg/mL
